Activity calls are given as the source filed them. The rule behind the calls is not given here.
What was measured:
[1] = target: T1, Fibroblast growth factor 1/Fibroblast growth factor receptor 2 (Homo sapiens) (UniProt P05230+P21802); assay: Inhibition of FGF1/FGFR2 D2 domain interaction in human MCF7 cells assessed as decrease in cell proliferation at 0.1 to 1 uM by WST-1 assay; format: cell-based; details: dose 0.1-1 µM
[2] = target: T1, Fibroblast growth factor 1/Fibroblast growth factor receptor 2 (Homo sapiens); assay: Inhibition of FGF1/FGFR2 D2 domain interaction in human MCF7 cells assessed as decrease in cell count at 0.1 to 1 uM by WST-1 assay; format: cell-based; details: dose 0.1-1 µM
MCF7 = assay: Cytotoxicity against FGF1-stimulated human MCF7 cells cultured in serum-starved media assessed as reduction in cell viability incubated for 48 hrs by WST-1 assay; format: functional, cell-based; details: MCF7, 48 h

T1 sequence (P05230 whole entry, looked up, the tested form may be a part): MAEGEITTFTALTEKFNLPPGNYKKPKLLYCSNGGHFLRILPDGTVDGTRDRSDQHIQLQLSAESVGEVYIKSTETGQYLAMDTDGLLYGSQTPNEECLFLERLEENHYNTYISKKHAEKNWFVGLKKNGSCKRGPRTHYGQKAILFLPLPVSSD
T1 sequence (P21802 whole entry, looked up, the tested form may be a part): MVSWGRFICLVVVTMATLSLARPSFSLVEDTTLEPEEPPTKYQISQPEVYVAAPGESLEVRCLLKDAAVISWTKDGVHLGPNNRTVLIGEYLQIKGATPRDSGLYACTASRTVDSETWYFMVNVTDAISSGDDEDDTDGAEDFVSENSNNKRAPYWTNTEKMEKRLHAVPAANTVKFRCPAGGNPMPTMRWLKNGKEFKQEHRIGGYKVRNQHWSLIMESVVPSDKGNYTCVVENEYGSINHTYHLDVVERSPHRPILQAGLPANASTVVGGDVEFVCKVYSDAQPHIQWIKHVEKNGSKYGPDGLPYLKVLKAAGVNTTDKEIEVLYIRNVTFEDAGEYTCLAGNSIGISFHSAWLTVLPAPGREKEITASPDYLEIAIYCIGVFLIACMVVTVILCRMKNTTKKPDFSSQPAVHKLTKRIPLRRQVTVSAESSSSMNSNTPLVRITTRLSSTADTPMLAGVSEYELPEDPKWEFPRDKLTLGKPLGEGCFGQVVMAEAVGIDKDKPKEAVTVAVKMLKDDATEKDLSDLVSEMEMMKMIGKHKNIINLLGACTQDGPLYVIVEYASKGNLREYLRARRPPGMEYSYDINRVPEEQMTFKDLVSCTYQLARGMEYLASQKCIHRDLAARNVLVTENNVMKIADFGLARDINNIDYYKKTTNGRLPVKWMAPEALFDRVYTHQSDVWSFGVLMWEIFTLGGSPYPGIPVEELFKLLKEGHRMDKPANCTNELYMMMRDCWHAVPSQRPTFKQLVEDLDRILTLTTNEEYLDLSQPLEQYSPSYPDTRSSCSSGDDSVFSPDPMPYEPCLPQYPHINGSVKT

| SMILES | inhibition [1] | inhibition [2] | IC50 (MCF7) |
| --- | --- | --- | --- |
| O=C(Nc1ccc(C(=O)Nc2ccc(C(=O)Nc3cccc4cc(S(=O)(=O)O)ccc34)cc2)cc1)Nc1ccc(C(=O)Nc2ccc(C(=O)Nc3cccc4cc(S(=O)(=O)O)ccc34)cc2)cc1 | Active | Active | 619 µM |
| Cc1ccc(C(=O)Nc2ccc(S(=O)(=O)O)c3cc(S(=O)(=O)O)cc(S(=O)(=O)O)c23)cc1NC(=O)c1cccc(NC(=O)Nc2cccc(C(=O)Nc3cc(C(=O)Nc4ccc(S(=O)(=O)O)c5cc(S(=O)(=O)O)cc(S(=O)(=O)O)c45)ccc3C)c2)c1 [SURAMIN] | Active | – | 154 µM |

Source: ChEMBL document CHEMBL4706537, “Suramin derivatives play an important role in blocking the interaction between FGF1 and FGFRD2 to inhibit cell proliferation” (Eur J Med Chem, 2020)
